# Measurements published in patent US7049396B2, “Synthetic peptides that inhibit leukocyte superoxide anion production and/or attract leukocytes” (priority 1995, dated 2006).
# Where two headings read alike, the source gives them in different places. Where a SMILES comes first, the peptide text is derived from it.
# Experiments:
# [1] = test system: S. typhimurium, KSU isolate 7; assay: Lawn-spotting antibacterial assay (S. typhimurium); format: cell-based, Salmonella typhimurium; details: 5 μl spotted, inactive segments up to 1 mg/ml
# [2] = biological target: T1, cell-free NADPH oxidase (human neutrophil cytosol and membranes) (Homo sapiens, UniProt P14598); assay: Cell-free O2- production assay; format: biochemical
# T1 construct: 10^6 cell equivalents of human neutrophil cytosol; from tissue; host or cells: human peripheral blood neutrophils (cytosol and deoxycholate-solubilized membranes)
# T1 sequence (P14598 1-390): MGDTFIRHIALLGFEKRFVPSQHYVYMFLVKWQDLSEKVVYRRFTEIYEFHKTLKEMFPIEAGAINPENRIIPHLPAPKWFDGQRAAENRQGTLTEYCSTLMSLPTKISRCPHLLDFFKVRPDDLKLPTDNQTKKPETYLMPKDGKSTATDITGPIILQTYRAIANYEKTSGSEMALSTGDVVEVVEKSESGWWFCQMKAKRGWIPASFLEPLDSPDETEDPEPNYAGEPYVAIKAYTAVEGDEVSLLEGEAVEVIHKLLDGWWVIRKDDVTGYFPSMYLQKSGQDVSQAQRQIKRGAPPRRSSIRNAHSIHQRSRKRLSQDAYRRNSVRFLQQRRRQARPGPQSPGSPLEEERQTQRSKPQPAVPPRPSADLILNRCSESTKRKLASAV
# Procedure: Reactions (100 μl) contained 10^6 cell equivalents of human neutrophil cytosol and 5×10^5 cell equivalents of deoxycholate-solubilized membranes prepared from human peripheral blood neutrophils. […] Control reactions contained 5 μg of superoxide dismutase. Superoxide anion generation was calculated based on superoxide dismutase-inhibitable changes in cytochrome c absorbance observed at 551 nm. The reactions were followed for 20 min. after addition of arachidonic acid, with absorbance readings taken at 1-min. intervals. […] Determinations were based on reactions performed in duplicate. • (ii) Binding assays. Neutrophils were disrupted by sonication, and unbroken cells, debris, and granules were removed by centrifuigation (13,000×g for 60 min.). Cytosol fractions were prepared by centrifugation (100,000 g for 45 min.) of the supernatants to remove residual membranes. Cytosolic proteins (15 μg in reducing buffer) were separated on a 7.5% SDS PAGE gel, transferred to PVDF membranes, and probed with biotinylated PR-39 (0.3 μM) for 2 hr. Binding between PR-39 and cytosolic proteins were visualized by a chemiluminescent streptavidin alkaline phosphatase system using an Epson scanner (Torrance, Calif.) and the NIH Image program. PR-39 was labeled with biotin hydrazide at the carboxy-terminus (Pierce Chemical Co., Rockford, Ill.) and purified by gel filtration chromatography.
# E. coli, ATCC 25922 = assay: Gel-overlay antibacterial assay; format: cell-based, Escherichia coli; details: 10 μg peptide per lane, AU-PAGE gel overlaid with E. coli, 18 hr
# E. coli, ATTC 25922 = assay: Lawn-spotting antibacterial assay (E. coli); format: cell-based, Escherichia coli; details: 5 μl spotted, inactive segments up to 1 mg/ml
# [3] = test system: whole-cell NADPH oxidase activity of porcine peripheral blood neutrophils; assay: Whole-cell O2- production, ferricytochrome c reduction; format: cell-based; details: incubated 150 min. before PMA stimulation
# Procedure: Regulation of neutrophil O2^− production by PR-26 and PR-39. • (i) O2^− production assays. Whole-cell O2^− production by por-cine peripheral blood neutrophils was determined by the superoxide dismutase-inhibitable reduction of ferricytochrome c as previously described (Shi et al., 1994a). Cell-free O2^− production was measured as previously described (Leto et al., 1991) using 96-well plates and a Molecular Devices Thermomax microplate reader (Menlo Park, Calif.). Reactions (100 μl) contained 10^6 cell equivalents of human neutrophil cytosol and 5×10^5 cell equivalents of deoxycholate-solubilized membranes prepared from human peripheral blood neutrophils. Reaction mixtures contained 50 mM potassium phosphate (pH 7), 0.2 mM acetylated cytochrome c, 4 mM MgCl2, 1 mM EGTA, 10 μM FAD, 1 μM GTP-γS, and 200 μM NADPH. The reactions were initiated by addition of 40 μM arachidonic acid. Control reactions contained 5 μg of superoxide dismutase. Superoxide anion generation was calculated based on superoxide dismutase-inhibitable changes in cytochrome c absorbance observed at 551 nm. The reactions were followed for 20 min. after addition of arachidonic acid, with absorbance readings taken at 1-min. intervals. Maximum rates of superoxide generation were calculated from a linear least squares fit of 10 consecutive 1-min. data points. Determinations were based on reactions performed in duplicate. • (ii) Binding assays. Neutrophils were disrupted by sonication, and unbroken cells, debris, and granules were removed by centrifuigation (13,000×g for 60 min.). Cytosol fractions were prepared by centrifugation (100,000 g for 45 min.) of the supernatants to remove residual membranes. Cytosolic proteins (15 μg in reducing buffer) were separated on a 7.5% SDS PAGE gel, transferred to PVDF membranes, and probed with biotinylated PR-39 (0.3 μM) for 2 hr. Binding between PR-39 and cytosolic proteins were visualized by a chemiluminescent streptavidin alkaline phosphatase system using an Epson scanner (Torrance, Calif.) and the NIH Image program. PR-39 was labeled with biotin hydrazide at the carboxy-terminus (Pierce Chemical Co., Rockford, Ill.) and purified by gel filtration chromatography.
# porcine neutrophils = assay: Neutrophil chemotaxis, modified Boyden chamber; format: cell-based; details: peptide at 1 μM, 30 min
# Procedure: Influence of PR-39 on neutrophil chemotaxis. Chemotaxis of porcine neutrophils was measured by the procedure of Salak et al. (1993). Briefly, PR-14, PR15, PR-16, PR-26, or PR-39 (30 μl in Dulbecco's Modified Eagle's medium) were placed in the bottom chamber of a modified Boyden chamber (Neuro Probe, Cabin John, Md.) and porcine neutrophils (50 μl at 5×10^6 cells/ml) were placed in the top chamber. The chambers were incubated at 37° C. for 30 min. Cells that migrated through the porous membrane (pore size 5 μm) were stained using LeukoStat solution and enumerated. Five microscope fields were counted and the cells that migrated through the membrane were standardized to the medium control and referred to as the migration index.
# Salmonella choleraesuis = format: cell-based
# Procedure: (§1) Plates were incubated at 37° C. for 18 hr. […] Viable bacteria were counted. Tests were repeated on three different days. […] The results were expressed as the mean ± standard deviation. […] S. choleraesuis, ATCC 6962 was used in this experiment. […] Slides were stained with LeukoStat solutions (Fisher, Pittsburgh, Pa.). […] At least 200 neutrophils were examined. […] Tests were repeated on three different days. Results were expressed as the mean±standard deviation.
# Streptococcus suis = assay: MIC/MBC microdilution broth method; format: cell-based
# Procedure: as §1
# Salmonella typhimurium = assay: MIC/MBC microdilution broth method; format: cell-based; details: murium
# Procedure: as §1
# Staphylococcus aureus = assay: MIC/MBC microdilution broth method; format: cell-based
# Procedure: as §1
# Escherichia coli, 25922 = assay: MIC/MBC microdilution broth method; format: cell-based
# Procedure: as §1
# S. typhimurium = assay: Survival of mice after oral S. typhimurium challenge (first experiment); format: in vivo, A/J mice; details: 100 or 250 μg/mouse
# Procedure: Effect of PR-26 on survival of mice challenged with S. typhimurium. Three separate S. typhimurium challenge studies were conducted with mice. In the first experiment, 45 A/J mice (Jackson Labs, Bar Harbor, Me.) were orally challenged with S. typhimurium. Feed was withdrawn 4 hrs. prior to an oral inoculation. Twenty min. prior to the inoculation with S. typhimurium mice were given a 30 μl dose of a 10% sodium bicarbonate solution in PBS. S. typhimurium, strain KSU007, was started in brain heart infusion broth overnight and then grown for 6 hrs. in Luria Broth Base (GIBCO, Gaithersburg, Md.). After centrifugation, bacteria were suspended in a 1% gelatin solution (final concentration 1.24×10^10 S. typhimurium/ml), and then 25 μl were given orally. Immediately following oral inoculation with S. typhimurium, mice were given 0, 100, or 250 μg of PR-26 in PBS. A second dose of PR-26 or PBS was given 4 hrs. later.
# [4] = cell-free assay, read-out: IC50 of O2- generation
# Procedure for Escherichia coli, K88: Briefly, 50 μl of twofold serial dilutions (128 to 0.25 μM) of synthetic peptides were dispensed into wells of 96-well tissue culture plates. Bacteria (E. coli, ATCC 25922; E. coli, K88; S. typhimurium, fresh isolate from a dog; Salmonella choleraesuis ATCC 6962; Streptococcus suis, fresh isolate from porcine spleen; and Staphylococcus aureus) from sheep-blood or brain-heart-infusion agar plates were standardized to 0.5 McFarland in demineralized water using a radiometer/sensititre (Chelsea Instrument Ltd., England). The water/bacteria suspension (100 μl) was immediately transferred to 10 ml of cation-adjusted Muller-Hinton broth and 50 μl of the bacterial suspension then were added to each well of the microtiter plate. Plates were incubated for 20 hr. at 37° C. and MICs were determined. Ten microliters of bacterial suspensions in Muller-Hinton broth also were diluted to determine the actual bacterial concentration using standard colony forming unit (CFU) counting. After determination of the MICs, 10 μl of each bacteria-peptide suspension were plated on sheep-blood or brain-heart-infusion agar plates and incubated for 24 hr. at 37° C. to determine the MBCs. MBC was considered that peptide concentration that inhibited 99.9% of the original CFUs (NCCLS, 1990). • (iv) PAE.
Compound,antibacterial activity (clear zone on bacterial lawn) [1],"antibacterial activity (clear zones on overlaid gel) (E. coli, ATCC 25922)","antibacterial activity (clear zone on bacterial lawn) (E. coli, ATTC 25922)",O2- generation by intact neutrophils [3],neutrophil chemotaxis (migration index) (porcine neutrophils),effect on O2- generation ([2]; cell-free assay),"IC50 [2, 4]",other results
PR-14: NH2-terminal segment 1 to 14 of PR-39; Sequence ID No. 7 (RRRPRPPYLPRPRP),no antibacterial activity,only PR-26 and PR-39 were found to have antibacterial activity,no antibacterial activity,did not significantly reduce,chemotactic agents,–,–,concentrations at which O2- generation was reduced ([2]; cell-free assay): greater than 25 μM
CC[C@H](C)[C@H](NC(=O)[C@H](CCCNC(=N)N)NC(=O)[C@@H]1CCCN1C(=O)[C@@H]1CCCN1C(=O)[C@H](CC(C)C)NC(=O)[C@H](CCCNC(=N)N)NC(=O)[C@@H]1CCCN1C(=O)[C@@H]1CCCN1C(=O)[C@H](Cc1ccccc1)NC(=O)[C@H](Cc1ccccc1)NC(=O)[C@@H]1CCCN1C(=O)[C@@H]1CCCN1C(=O)[C@@H]1CCCN1C(=O)[C@H](CCCNC(=N)N)NC(=O)[C@@H]1CCCN1C(=O)[C@H](CCCNC(=N)N)NC(=O)[C@@H]1CCCN1C(=O)[C@H](CC(C)C)NC(=O)[C@H](Cc1ccc(O)cc1)NC(=O)[C@@H]1CCCN1C(=O)[C@@H]1CCCN1C(=O)[C@H](CCCNC(=N)N)NC(=O)[C@@H]1CCCN1C(=O)[C@H](CCCNC(=N)N)NC(=O)[C@H](CCCNC(=N)N)NC(=O)[C@@H](N)CCCNC(=N)N)C(=O)O [PR-26] (H-RRRPRPPYLPRPRPPPFFPPRLPPRI-OH),–,–,–,–,–,–,–,"MBC (Salmonella choleraesuis): 2 µM; MIC (Salmonella choleraesuis): 1 µM; IC50 [2]: ~1 µM; MBC (Streptococcus suis): >64 µM; MIC (Streptococcus suis): 16 µM; MBC (Salmonella typhimurium): 2 µM; MIC (Salmonella typhimurium): 2 µM; MIC (Staphylococcus aureus): >250 µM; MBC (Escherichia coli, 25922): 8 µM; MIC (Escherichia coli, 25922): 2 µM; MBC (Escherichia coli, K88): 4 µM; MIC (Escherichia coli, K88): 1 µM; toxicity in mice (S. typhimurium): no evidence of toxicity"
PR-15: COOH-terminal segment 25 to 39 of PR-39; Sequence ID No. 6 (RIPPGFPPRFPPRFP),no antibacterial activity,only PR-26 and PR-39 were found to have antibacterial activity,no antibacterial activity,did not significantly reduce,chemotactic agents,did not affect,–,–
CC[C@H](C)[C@H](NC(=O)[C@H](CCCNC(=N)N)NC(=O)[C@@H]1CCCN1C(=O)[C@@H]1CCCN1C(=O)[C@H](CC(C)C)NC(=O)[C@H](CCCNC(=N)N)NC(=O)[C@@H]1CCCN1C(=O)[C@@H]1CCCN1C(=O)[C@H](Cc1ccccc1)NC(=O)[C@H](Cc1ccccc1)NC(=O)[C@@H]1CCCN1C(=O)[C@@H]1CCCN1C(=O)[C@@H]1CCCN1C(=O)[C@H](CCCNC(=N)N)NC(=O)[C@@H]1CCCN1C(=O)[C@H](CCCNC(=N)N)NC(=O)[C@@H]1CCCN1C(=O)[C@H](CC(C)C)NC(=O)[C@H](Cc1ccc(O)cc1)NC(=O)[C@@H]1CCCN1C(=O)[C@@H]1CCCN1C(=O)[C@H](CCCNC(=N)N)NC(=O)[C@@H]1CCCN1)C(=O)O [PR-23] (H-PRPPYLPRPRPPPFFPPRLPPRI-OH),–,–,–,–,–,–,~25 µM,–
CC(C)C[C@H](NC(=O)[C@H](Cc1ccc(O)cc1)NC(=O)[C@@H]1CCCN1C(=O)[C@@H]1CCCN1C(=O)[C@H](CCCNC(=N)N)NC(=O)[C@@H]1CCCN1C(=O)[C@H](CCCNC(=N)N)NC(=O)[C@H](CCCNC(=N)N)NC(=O)[C@@H](N)CCCNC(=N)N)C(=O)N1CCC[C@H]1C(=O)N[C@@H](CCCNC(=N)N)C(=O)N1CCC[C@H]1C(=O)N[C@@H](CCCNC(=N)N)C(=O)N1CCC[C@H]1C(=O)N1CCC[C@H]1C(=O)N1CCC[C@H]1C(=O)N[C@@H](Cc1ccccc1)C(=O)N[C@@H](Cc1ccccc1)C(=O)N1CCC[C@H]1C(=O)O [PR-19] (H-RRRPRPPYLPRPRPPPFFP-OH),–,–,–,–,–,–,~5 µM,–
PR-16: central segment 11 to 26 of PR-39; Sequence ID No. 5 (RPRPPPFFPPRLPPRI),no antibacterial activity,only PR-26 and PR-39 were found to have antibacterial activity,no antibacterial activity,did not significantly reduce,chemotactic agents,did not affect,–,–
